Tested on: MELANODERM™ MEL-300B tissue constructs
Experiment: Overall Melanin Level Assay (MELANODERM skin analog, Solvable Melanin Assay)
Assay type: cell-based, human
Details: for Absorbance (relative melanin content): MEL-300B tissue (donors with black complexion), 25 μl applied every other day for 10 days, read at 490 nm, 2% kojic acid solution, 0.4% hydroquinone solution, formulation of Table 1, untreated control 0.927
Procedure: This bioassay was used to analyze the effect of compounds on melanogenesis. […] The endpoint of this assay was spectrophotometric measurement of melanin production and cellular viability of tissue constructs derived from donors. The skin lightening efficacy of the formulation in Table 1 was evaluated using a skin analog sold by MatTek Corp. under the tradename MELANODERM™. Tissue constructs derived from donors with a black complexion (MELANODERM™ MEL-300B) were used. Tissue constructs derived from people with a black complexion have melanocytes with increased pigmentation versus those of people with a white or brown complexion melanocytes. MEL-300B tissue inserts were placed into the wells of 12-well plates filled with maintenance medium and pre-equilibrated in a humidified 37° C., 5% CO2 incubator overnight prior to applying treatment. After removal of the pre-equilibration medium, 25 μl of the formulation of Table 1 was applied directly to the MEL-300B stratum corneum by pipetting with a positive displacement pipette into the cell culture insert which contained the MEL-300B tissue inserts. Treatments were done in triplicates. 25 μl of 2% Kojic Acid (KA) solution and 25 μl of 0.4% Hydroquinone (HQ) solution were used as positive controls and 25 μl of sterile ultrapure water served as negative control. The MEL-300B tissue inserts were treated every other day for 10 consecutive days. Maintenance medium was replaced every other day with fresh medium. After treatment, the MEL-300B tissue inserts were submerged in phosphate buffered saline (PBS) for 10 minutes to remove any residual phenol red and test article from the tissue. After the MEL-300B tissue inserts were rinsed off, viability was measured on one of the tissues using the MTT viability assay (MTT Kit part #: MTT-100). The relative melanin content was measured using the Solvable Melanin Assay. Briefly, the tissues were removed from the inserts using fine-point forceps. Each tissue was blotted dry and placed in a 1.7 ml microfuge tube. […] Absorbance of the plate was read at 490 nm.

Q: With Oc1ccc(O)cc1 [Hydroquinone] as the compound, how does the “effect on melanin compared to untreated control / positive control (in words)” value (MEL-300B tissue (dark skin model), topical application) read?
A: increase melanin compared to the untreated control

Q: And the “Absorbance (relative melanin content)” value?
A: 1.222

Q: With O=c1cc(CO)occ1O [Kojick Acid, Kojic Acid] as the compound, how does the “Absorbance (relative melanin content)” value read?
A: 0.629

Reference: patent publication US11779532B2, “Topical compositions and methods” (Mary Kay Inc., priority 2020, dated 2023)
